Reference: ChEMBL document CHEMBL6083212, “The synthesis and bioactivities of ROCK2 inhibitors with 1,2-dithiolan-3-yl motif” (RSC Med Chem, 2024)
Calls of active or inactive are those of the source. The calls are words filed in the database; no cut-off is given here.

Experiments:
[1] = Cytotoxicity against mouse BV-2 cells by MTT assay; type: toxicity, cell-based; details: read-out: TC50 (the source's name)
[2] = Antioxidant activity assessed as DPPH radical scavenging activity at 1 mM incubated for 30 mins by absorbance based analysis; type: functional
BV-2 [3] = test: Antiinflammatory activity in LPS-induced mouse BV-2 cells assessed as inhibition of IL-6 production at […] incubated for 24 hrs by ELISA analysis; type: functional; parameters: dose or concentration left out as unconfirmed
BV-2 [4] = test: Antiinflammatory activity in LPS-induced mouse BV-2 cells assessed as inhibition of TNF-alpha production at […] incubated for 24 hrs by ELISA analysis; type: functional; parameters: dose or concentration left out as unconfirmed
Mus musculus = test: Anti-inflammatory activity in CFA-induced acute arthritis C57BL/6 mouse model assessed as effect on foot swelling at 5 to 10 mg/kg, iv measured for 12 hrs; type: functional, organism-based; details: dose 5-10 mg/kg
[5] = AUC (0 to infinity) in Sprague-Dawley rat at 10 mg/kg, ip measured upto 24 hrs by LC-MS analysis; type: ADME, organism-based; details: in vivo
[6] = Tmax in Sprague-Dawley rat at 10 mg/kg, ip measured upto 24 hrs by LC-MS analysis; type: ADME, organism-based; details: in vivo
[7] = Apparent volume of distribution during terminal phase in Sprague-Dawley rat at 10 mg/kg, iv measured upto 24 hrs by LC-MS analysis; type: ADME, organism-based; details: in vivo
[8] = Apparent clearance during terminal phase in Sprague-Dawley rat at 10 mg/kg, iv measured upto 24 hrs by LC-MS analysis; type: ADME, organism-based; details: in vivo
[9] = Acute toxicity in C57BL/6 mouse assessed as change in body weight at 50 mg/kg, iv measured for 14 days; type: organism-based; details: in vivo, 336 h, time 14 day
[10] = Cmax in Sprague-Dawley rat at 10 mg/kg, iv measured upto 24 hrs by LC-MS analysis; type: ADME, organism-based; details: in vivo
[11] = Acute toxicity in C57BL/6 mouse assessed as change in organ index at 50 mg/kg, iv measured for 14 days; type: organism-based; details: in vivo, 336 h, time 14 day
[12] = Tmax in Sprague-Dawley rat at 10 mg/kg, iv measured upto 24 hrs by LC-MS analysis; type: ADME, organism-based; details: in vivo
[13] = AUC (0 to t) in Sprague-Dawley rat at 10 mg/kg, ip measured upto 24 hrs by LC-MS analysis; type: ADME, organism-based; details: in vivo
[14] = Cmax in Sprague-Dawley rat at 10 mg/kg, ip measured upto 24 hrs by LC-MS analysis; type: ADME, organism-based; details: in vivo
[15] = Oral bioavailability in Sprague-Dawley rat at 10 mg/kg measured upto 24 hrs by LC-MS analysis; type: ADME, organism-based; details: in vivo
[16] = Apparent volume of distribution during terminal phase in Sprague-Dawley rat at 10 mg/kg, ip measured upto 24 hrs by LC-MS analysis; type: ADME, organism-based; details: in vivo, read-out: Vz/F
[17] = Acute toxicity in C57BL/6 mouse assessed as change in mental state at 50 mg/kg, iv measured for 14 days; type: organism-based; details: in vivo, 336 h, time 14 day
[18] = Apparent clearance during terminal phase in Sprague-Dawley rat at 10 mg/kg, ip measured upto 24 hrs by LC-MS analysis; type: ADME, organism-based; details: in vivo, read-out: CLz/F (converted)
[19] = AUC (0 to t) in Sprague-Dawley rat at 10 mg/kg, iv measured upto 24 hrs by LC-MS analysis; type: ADME, organism-based; details: in vivo
[20] = AUC (0 to infinity) in Sprague-Dawley rat at 10 mg/kg, iv measured upto 24 hrs by LC-MS analysis; type: ADME, organism-based; details: in vivo
[21] = Drug metabolism in rat plasma assessed as 5-(1,1-dioxodithiolan-3-yl)pentyl 4-(5-isoquinolylsulfonyl)-1,4-diazepane-1-carboxylate metabolite formation at 10 mg/kg, iv; type: ADME, organism-based; details: in vivo
[22] = Drug metabolism in rat plasma assessed as 5-(1-oxodithiolan-3-yl)pentyl 4-(5-isoquinolylsulfonyl)-1,4-diazepane-1-carboxylate metabolite formation at 10 mg/kg, iv; type: ADME, organism-based; details: in vivo
[23] = Drug metabolism in rat plasma assessed as 5-(1,2-dioxodithiolan-3-yl)pentyl 4-(5-isoquinolylsulfonyl)-1,4-diazepane-1-carboxylate metabolite formation at 10 mg/kg, iv; type: ADME, organism-based; details: in vivo

Compound	CC50 [1] [µM]	Activity [2] [%]	inhibition (BV-2 [3])	inhibition (BV-2 [4])	also measured
COc1cc(/C=C/C(=O)N2CCCN(S(=O)(=O)c3cccc4cnccc34)CC2)ccc1OCCCCO[N+](=O)[O-]	> 100	20.7	36.3%	57.5%	–
O=C(CCCCC1CCSS1)N1CCN(C(c2ccccc2)c2ccccc2)CC1 (stereo unspecified)	63	50.5	49.6%	41%	–
COc1cc(/C=C/C(=O)N2CCCN(S(=O)(=O)c3cccc4cnccc34)CC2)ccc1OCCO[N+](=O)[O-]	> 100	23.9	2.78%	45.8%	–
O=C(CCCCC1CCSS1)N1CCCN(S(=O)(=O)c2cccc3c(O)nccc23)CC1 (stereo unspecified)	> 100	24.4	inactive	inactive	–
CC1(C)C=Cc2cc(C(=O)N3CCCN(S(=O)(=O)c4cccc5cnccc45)CC3)ccc2O1	> 100	48.7	inactive	31.5%	–
COc1cc(/C=C/C(=O)N2CCCN(S(=O)(=O)c3cccc4cnccc34)CC2)ccc1OCCCCCO[N+](=O)[O-]	> 100	25.3	48.5%	34.9%	–
O=S(=O)(c1cccc2cnccc12)N1CCCN(C(c2ccc(F)cc2)c2ccc(F)cc2)CC1	62	22.7	inactive	inactive	–
COc1cc(/C=C/C(=O)N2CCCN(S(=O)(=O)c3cccc4cnccc34)CC2)ccc1OCCCO[N+](=O)[O-]	> 100	19.1	6.42%	30.9%	–
COc1cc(/C=C/C(=O)N2CCCN(S(=O)(=O)c3cccc4c(O)nccc34)CC2)ccc1OC(C)=O	> 20	48.7	25.9%	22.6%	–
O=S(=O)(c1cccc2cnccc12)N1CCCN(C(c2ccccc2)c2ccccc2)CC1	> 100	22.4	inactive	inactive	–
COc1cc(/C=C/C(=O)N2CCCN(S(=O)(=O)c3cccc4cnccc34)CC2)cc(OC)c1O	> 100	90.9	0.07%	34.5%	–
O=C(CCCCC1CCSS1)N1CCN(S(=O)(=O)c2cccc3cnccc23)CC1 (stereo unspecified)	> 100	51.2	inactive	9.02%	–
CC1(C)C=Cc2cc(/C=C/C(=O)N3CCN(S(=O)(=O)c4cccc5cnccc45)CC3)ccc2O1	> 100	25.4	inactive	39.2%	–
O=S(=O)(c1cccc2cnccc12)N1CCN(C(c2ccc(F)cc2)c2ccc(F)cc2)CC1	> 20	23.4	inactive	inactive	–
COc1cc(/C=C/C(=O)N2CCCN(S(=O)(=O)c3cccc4cnccc34)CC2)ccc1OC(C)=O	> 100	28.7	inactive	inactive	–
COc1cc(/C=C/C(=O)N2CCCN(S(=O)(=O)c3cccc4cnccc34)CC2)ccc1O	> 100	93	inactive	0.08%	–
COc1cc(/C=C/C(=O)N2CCCN(S(=O)(=O)c3cccc4cnccc34)CC2)cc(OC)c1OC(C)=O	> 100	22.7	35%	45.9%	–
O=C(CCCCC1CCSS1)N1CCN(C(c2ccc(F)cc2)c2ccc(F)cc2)CC1 (stereo unspecified)	> 100	92	53.8%	70.7%	Activity (Mus musculus): Active; AUC(0-inf) [5]: 1660 ng·h/mL; Tmax [6]: 4.98 min; Vz/F [7]: 0.7 L/kg; CLz/F [8]: 48.3 mL/min/kg; Activity [9]: Non-toxic; Cmax [10]: 20000 ng/mL; Activity [11]: Non-toxic; Tmax [12]: 4.98 min; AUC(0-t) at 24 h [13]: 1630 ng·h/mL; Cmax [14]: 9950 ng/mL; bioavailability [15]: 48.5%; Vd/F [16]: 6.1 L/kg; Activity [17]: Non-toxic; CL/F [18]: 102 mL/min/kg; AUC(0-t) at 24 h [19]: 3350 ng·h/mL; AUC(0-inf) [20]: 3360 ng·h/mL
CC(=O)Oc1ccccc1C(=O)OCCCCCC1CCSS1 (stereo unspecified)	9.19	28.5	27.8%	51.3%	–
CC(=O)Oc1ccc(/C=C/C(=O)N2CCCN(S(=O)(=O)c3cccc4cnccc34)CC2)cc1	> 100	29.2	26.3%	49.5%	–
COc1cc(/C=C/C(=O)OCCCCCC2CCSS2)ccc1OC(C)=O (stereo unspecified)	> 100	26.1	inactive	inactive	–
CC(=O)Oc1ccc(/C=C/C(=O)N2CCCN(S(=O)(=O)c3cccc4cnccc34)CC2)cc1OC(C)=O	44.2	82.4	22.6%	17.8%	–
CC1(C)C=Cc2cc(/C=C/C(=O)N3CCCN(S(=O)(=O)c4cccc5cnccc45)CC3)ccc2O1	64.4	33.8	inactive	38.5%	–
COc1cc(/C=C/C(=O)N2CCCN(S(=O)(=O)c3cccc4cnccc34)CC2)ccc1OCCCCCCO[N+](=O)[O-]	> 100	24.3	56.1%	53.8%	–
O=S(=O)(c1cccc2cnccc12)N1CCCNCC1 [FASUDIL]	–	99	82.6%	30.1%	–
O=S(=O)(c1cccc2cnccc12)N1CCN(C(c2ccccc2)c2ccccc2)CC1	> 20	26.5	inactive	25.8%	–
O=C(OCCCCCC1CCSS1)N1CCCN(S(=O)(=O)c2cccc3cnccc23)CC1 (stereo unspecified)	> 100	91.4	86.7%	53.9%	Vz/F [7]: 1.3 L/kg; CLz/F [8]: 93.3 mL/min/kg; Activity [9]: Non-toxic; Cmax [10]: 12200 ng/mL; Activity [11]: Non-toxic; Tmax [12]: 12 min; Drug metabolism [21]: metabolite_detected; Activity [17]: Non-toxic; AUC(0-t) at 24 h [19]: 1940 ng·h/mL; Drug metabolism [22]: metabolite_detected; Drug metabolism [23]: metabolite_detected; AUC(0-inf) [20]: 1950 ng·h/mL
